In ChEMBL document CHEMBL1138204, “Low-calcemic, highly antiproliferative, 1-difluoromethyl hybrid analogs of the natural hormone 1alpha,25-dihydroxyvitamin D3: design, synthesis, and preliminary biological evaluation” (J Med Chem, 2006):

What was measured:
[1] = Antiproliferative activity against murine keratinocytes; format: functional; details: Mus musculus, Keratinocyte; read-out: ED50 (the source's name)
Rattus norvegicus = species: Rattus norvegicus; experiment: Calcemic activity in Sprague-Dawley rat measured as urinary calcium excretion relative to calcitriol; format: functional, Urine
Vitamin D3 receptor = target: T1, Vitamin D3 receptor (Homo sapiens, UniProt P11473); experiment: Displacement of [3H]1,25-dihydroxyvitamin D3 from human VDR by HAP assay
T1 sequence (P11473 whole entry): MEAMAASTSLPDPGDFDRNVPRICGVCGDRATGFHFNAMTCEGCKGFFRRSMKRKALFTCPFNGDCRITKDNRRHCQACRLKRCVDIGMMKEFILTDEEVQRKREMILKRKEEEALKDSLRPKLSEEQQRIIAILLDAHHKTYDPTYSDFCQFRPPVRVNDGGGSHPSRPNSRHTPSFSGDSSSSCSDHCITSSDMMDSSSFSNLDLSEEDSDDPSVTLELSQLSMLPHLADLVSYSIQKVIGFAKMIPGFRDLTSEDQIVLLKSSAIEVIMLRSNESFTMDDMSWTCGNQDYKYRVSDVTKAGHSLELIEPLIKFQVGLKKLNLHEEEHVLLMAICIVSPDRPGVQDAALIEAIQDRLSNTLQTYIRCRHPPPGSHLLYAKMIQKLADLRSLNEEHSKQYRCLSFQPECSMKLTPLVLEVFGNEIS

[2] = target: T2, Vitamin D3 receptor (Homo sapiens) (UniProt P11473)
T2 sequence (whole entry): T1 sequence (P11473 whole entry)
Description: Stabilization of human [35S]VDR against trypsin digestion by protease assay

[3] = target: T2, Vitamin D3 receptor (Homo sapiens); details: CV-1
Description: Activity on human VDR-mediated transcription of osteocalcin VDRE fused to thymidine kinase promoter/growth hormone reporter gene in CV1 cells

| IC50 (Vitamin D3 receptor) [µM] | ED50 [2] [µM] | ED50 [3] [µM] | Structure (SMILES) | EC50 [1] [µM] | Activity (Rattus norvegicus) [%] |
| --- | --- | --- | --- | --- | --- |
| 0.05 | 0.004 | 0.0006 | C=C1/C(=C\C=C2/CCC[C@]3(C)C([C@H](C)CCC(F)(F)C(O)(CC)CC)=CC[C@@H]23)C[C@@H](O)C[C@@H]1C(F)F | 0.002 | 16 |
| 0.03 | 0.5 | 0.39 | C=C1/C(=C\C=C2/CCC[C@]3(C)[C@@H]([C@H](C)CCCC(C)(C)O)CC[C@@H]23)C[C@@H](O)C[C@@H]1C(F)F | 0.15 |  |
| 0.0195 | 0.1 | 0.003 | C=C1/C(=C\C=C2/CCC[C@]3(C)[C@@H]([C@@H](C)OCCCC(O)(CC)CC)CC[C@@H]23)C[C@@H](O)C[C@@H]1C(F)F | 0.007 | 5 |
